Test results published in patent publication US20230116972A1, “CD38 MODULATORS AND METHODS OF USE THEREOF” (Cytokinetics, Inc., priority 2021, published 2023).
pIC50: −log10 of the molar value.

Tests used:
human CD38 = target: T1, human CD38 (Homo sapiens, UniProt P28907); experiment: human recombinant CD38 enzyme assay (hydrolysis of NAD+); format: biochemical; details: human recombinant CD38, 0.4 nM enzyme, 62.5 μM NAD+; read-out: hCD38 BioChem IC50
T1 sequence (P28907 1-300): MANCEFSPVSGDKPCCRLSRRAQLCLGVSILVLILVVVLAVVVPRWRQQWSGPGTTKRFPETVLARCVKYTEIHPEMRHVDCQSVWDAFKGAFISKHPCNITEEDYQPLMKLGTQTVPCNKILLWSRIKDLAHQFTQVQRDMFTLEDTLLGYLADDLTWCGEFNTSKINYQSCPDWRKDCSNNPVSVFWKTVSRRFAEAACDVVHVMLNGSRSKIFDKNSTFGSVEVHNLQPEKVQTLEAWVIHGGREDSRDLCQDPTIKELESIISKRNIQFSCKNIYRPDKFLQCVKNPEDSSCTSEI
How it was run: (§1)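 Steps: compound and recombinant enzyme are mixed, NAD+ is added, and the reaction runs 60 min at room temperature. An ADH/ethanol mix containing a CD38 inhibitor halts hydrolysis and forms NADH. After NaOH quench, resazurin plus diaphorase produce fluorescent resorufin, read at 540/590 nm.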

mouse CD38 = target: T2, mouse CD38 (Mus musculus, UniProt P56528); experiment: mouse recombinant CD38 enzyme assay (hydrolysis of NAD+); format: biochemical; details: read-out: mCD38 BioChem IC50
T2 sequence (P56528 1-304): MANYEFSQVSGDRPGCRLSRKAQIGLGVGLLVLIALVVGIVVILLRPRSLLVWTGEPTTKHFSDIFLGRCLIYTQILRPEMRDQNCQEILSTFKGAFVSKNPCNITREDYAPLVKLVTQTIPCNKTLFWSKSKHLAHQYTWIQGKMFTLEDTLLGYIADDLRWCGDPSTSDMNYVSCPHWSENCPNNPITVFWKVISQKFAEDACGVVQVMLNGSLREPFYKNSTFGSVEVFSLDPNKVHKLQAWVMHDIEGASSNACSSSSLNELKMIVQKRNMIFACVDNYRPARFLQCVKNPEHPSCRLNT
How it was run: as §1

[1] = target: T3, endogenous CD38 in HL60 cells (Homo sapiens, UniProt P28907); experiment: cellular CD38 assay in HL60 cells (cellular NAD levels); format: cell-based; details: all-trans retinoic acid, 24 hours, read-out: hCD38 HL60 ATRA NAD Cell Diaphorase IC50
T3 construct: endogenous in cells; host or cells: HL60 (leukemic cells, treated with all-trans retinoic acid)
T3 sequence (P28907 1-300): T1 sequence (P28907 1-300)
How it was run: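 Endogenous CD38 inhibition is inferred from NAD levels in HL60 cells after 24 h compound exposure at 20000 cells per well. A lytic cycling readout (0.2 U/mL diaphorase, 0.8 U/mL alcohol dehydrogenase, resazurin, FMN, ethanol, 0.2% Triton X-100, Tris/EDTA pH 8.4) ran 60 min at ambient temperature. Resorufin fluorescence was read at 540/590 nm.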

Structure (SMILES)	pIC50 (human CD38)	pIC50 (mouse CD38)	pIC50 [1]
O=C(Nc1ccc(C(F)(F)F)nc1)c1nc(-n2ccnc2)ccc1F [Compound 42, 3-fluoro-6-(1H-imidazol-1-yl)-N-(6-(trifluoromethyl)pyridin-3-yl)picolinamide]	8.05	8.10	6.04
CO[C@H]1CC[C@H](NC(=O)c2nc(C3CC3)cc(-n3ccnc3)n2)CC1 [Compound 204, 4-cyclopropyl-6-(1H-imidazol-1-yl)-N-((1r,4r)-4-methoxycyclohexyl)pyrimidine-2-carboxamide]	6.91	8.06	5.07
COC(=O)[C@H]1CC[C@H](NC(=O)c2ccnc(-n3ccnc3)n2)CC1 [Compound 106, methyl (1r,4r)-4-(2-(1H-imidazol-1-yl)pyrimidine-4-carboxamido)cyclohexane-1-carboxylate]	7.66	8.05	5.74
O=C(Nc1ccc(C(F)(F)F)nc1)c1ccnc(-c2cncs2)n1 [Compound 86, 2-(thiazol-5-yl)-N-(6-(trifluoromethyl)pyridin-3-yl)pyrimidine-4-carboxamide]	6.71	6.66	5.06

The next lines start with the values.

pIC50 (human CD38)	pIC50 (mouse CD38)	pIC50 [1]	Structure (SMILES)
7.23	7.44	5.55	O=C(N[C@H]1CC[C@H](OC(F)F)CC1)c1nccc(-n2ccnc2)n1 [Compound 293, N-((1r,4r)-4-(difluoromethoxy)cyclohexyl)-4-(1H-imidazol-1-yl)pyrimidine-2-carboxamide]
7.79	8.33	5.41	Cn1cncc1-c1nc(C(=O)N[C@H]2CCc3c(F)cccc32)cc(C2CCOCC2)n1 [Compound 228, (S)-N-(4-fluoro-2,3-dihydro-1H-inden-1-yl)-2-(1-methyl-1H-imidazol-5-yl)-6-(tetrahydro-2H-pyran-4-yl)pyrimidine-4-carboxamide]
8.25	8.96	6.15	COCCOc1cc(-c2cncn2C)nc(C(=O)Nc2ccc(C(F)F)nc2)n1 [Compound 224, N-(6-(difluoromethyl)pyridin-3-yl)-4-(2-methoxyethoxy)-6-(1-methyl-1H-imidazol-5-yl)pyrimidine-2-carboxamide]
